Where a name gives a salt, the structure may show the parent alone. Some results are limits rather than exact numbers.

Assay [1] concerns muscarinic antagonist sites. The assay is described as follows: Binding to muscarinic antagonist sites using [^3 H]quinuclidinyl benzylate (RQNB). The note with it: [^3 H]quinuclidinyl benzylate radioligand. The procedure:
(§1) Sigma binding affinities are measured using [^3 H]-(+)-3-(3'-hydroxyphenyl)-N-(1'-propyl)-piperdine, referred to in the following Table I as 3PPP. This test is carried out according to the procedures of B. L. Largent, et al, Proc. Natl. Acad. Sci., USA, 1984; 81:5618. The ability of the compounds to bind muscarinic antagonist sites was determined invitro using [^3 H]quinuclidinyl benzylate (RQNB) according to the procedure of M. Watson, J. Pharmacol. Exp. Ther. 1986; 237-411.

In a further assay the target is T1, sigma binding site (Rattus norvegicus, UniProt Q9R0C9).
T1 construct: from tissue
Briefly: Sigma binding affinity using [^3 H]-(+)-3-(3'-hydroxyphenyl)-N-(1'-propyl)-piperdine (3PPP). The note with it: [^3 H]PPP radioligand. The procedure:
as §1

T1 sequence (Q9R0C9 whole entry): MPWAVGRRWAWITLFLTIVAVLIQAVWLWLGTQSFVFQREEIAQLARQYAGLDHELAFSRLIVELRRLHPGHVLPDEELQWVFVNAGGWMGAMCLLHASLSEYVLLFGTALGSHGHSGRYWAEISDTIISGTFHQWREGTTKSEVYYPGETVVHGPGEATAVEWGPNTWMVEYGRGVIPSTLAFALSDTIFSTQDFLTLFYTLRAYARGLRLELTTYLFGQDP

Take `CCCN1CCC=C(c2cc(-c3ccccc3)no2)C1` [Example 4A, 3-phenyl-5-[3'-(1'-propyl-1', 2', 5', 6'-tetrahydropyridinyl)]isoxazole oxalate]: the “RQNB % Inhibition @ 1 μM” value in assay [1] worked out at 10%. In addition, the half-maximal inhibitory concentration (IC50) on sigma binding site was 0.78 nM.
In the same order, the values of `CCCN1CCC=C(c2cc(-c3cccc(C)c3)no2)C1` [Example 7A, 3-(3'-Methylphenyl)-5-[3'-(1'-propyl-1', 2', 5', 6'-tetrahydropyridinyl)]isoxazole oxalate] are 10% and 0.45 nM.
The like results for `CCCN1CCC=C(c2cc(-c3cccc(OC)c3)on2)C1` [Example 6B, 3-[3'-(1'-propyl-1', 2', 5', 6'-tetrahydropyridinyl)]-5-(3'-methoxyphenyl)isoxazole oxalate] were, in that order, 7% and 0.1 nM.
The like results for `CCCN1CCC=C(C2=NOC(c3ccccc3)C2)C1` (stereo not shown) [Example 1, 3-[3'-(1'-propyl-1', 2', 5', 6'-tetrahydropyridinyl)]-5-phenyl-2-isoxazoline] were, in that order, 10% and 7.05 nM.
Turning to `CCCN1CCC=C(c2cc(-c3ccc(C)cc3)no2)C1` [Example 5A, 3-(4'-Methylphenyl)-5-[3'-(1'-propyl-1', 2', 5', 6'-tetrahydropyridinyl)]isoxazole oxalate], the “RQNB % Inhibition @ 1 μM” value in assay [1] amounted to 10%. The same molecule displayed an IC50 at sigma binding site of 0.067 nM.
In the case of `CCCN1CCC=C(c2cc(-c3ccccc3)on2)C1` [Example 4B, 3-[3'-(1'-propyl-1', 2', 5', 6'-tetrahydropyridinyl)]-5-phenylisoxazole oxalate], the “RQNB % Inhibition @ 1 μM” value in assay [1] is 4%. The molecule further returned an IC50 at sigma binding site of 8.8 nM.
In the same order, the values of `CCCN1CCC=C(C2=NOC(c3ccc(Cl)cc3)C2)C1` (stereo not shown) [Example 3, 3-[3'-(1'-Propyl-1', 2', 5', 6'-tetrahydropyridinyl)]-5-(4'-chlorophenyl)-2-isoxazoline] are 22% and 1.03 nM.
The like results for `CCCN1CCC=C(C2=NOC(c3ccc(OC)cc3)C2)C1` (stereo not shown) [Example 2, 3-[3'-(1'-Propyl-1', 2', 5', 6'-tetrahydropyridinyl) ]-5-(4'-methoxyphenyl)-2-isoxazoline] were, in that order, 7% and 39.1 nM.
Consider `CCCN1CCC=C(c2cc(-c3ccccc3OC)on2)C1` [Example 9B, 3-[3'-(1'-propyl-1', 2', 5', 6'-tetrahydropyridinyl)]-5-(2'-methoxyphenyl)isoxazole oxalate], for which the “RQNB % Inhibition @ 1 μM” value in assay [1] was determined as 12%. The molecule further returned an IC50 at sigma binding site of 10000 nM.
The like results for `CCCN1CCC=C(c2cc(-c3ccccc3OC)no2)C1` [Example 9A, 3-(2'-Methoxyphenyl)-5-[3'-(1'-propyl-1', 2', 5', 6'-tetrahydropyridinyl)]isoxazole oxalate] were, in that order, 23% and above 10000 nM.
The like results for `CCCN1CCC=C(c2cc(-c3ccccc3C)no2)C1` [Example 8A, 3-(2'-Methylphenyl)-5-[3'-(1'-propyl-1', 2', 5', 6'-tetrahydropyridinyl)]isoxazole oxalate] were, in that order, 40% and 3640 nM.
The like results for `CCCN1CCC=C(c2cc(-c3ccccc3C)on2)C1` [Example 8B, 3-[3'-(1'-propyl-1', 2', 5', 6'-tetrahydropyridinyl)]-5-(2'-methylphenyl)isoxazole oxalate] were, in that order, 12% and 546 nM.
With `CCCN1CCC=C(c2cc(-c3cccc(C)c3)on2)C1` [Example 7B, 3-[3'-(1'-propyl-1', 2', 5', 6'-tetrahydropyridinyl)]-5-(3'-methylphenyl)isoxazole oxalate], the “RQNB % Inhibition @ 1 μM” value in assay [1] is recorded as 10%. At sigma binding site, this molecule displayed an IC50 of 9.9 nM.
As to `CCCN1CCC=C(c2cc(-c3cccc(OC)c3)no2)C1` [Example 6A, 3-(3'-Methoxyphenyl)-5-[3'-(1'-propyl-1', 2', 5', 6'-tetrahydropyridinyl)]isoxazole oxalate], the “RQNB % Inhibition @ 1 μM” value in assay [1] was determined as 15%. For the same molecule, on sigma binding site, the IC50 came to 4 nM.
As for `CCCN1CCC=C(c2cc(-c3ccc(OC)cc3)on2)C1` [Example 14B, 3-[3'-(1'-propyl-1', 2', 5', 6'-tetrahydropyridinyl)]-5-(4'-methoxyphenyl)isoxazole oxalate], the “RQNB % Inhibition @ 1 μM” value in assay [1] came out at 9%. Also, the half-inhibitory concentration (IC50) at sigma binding site turned out to be 1470 nM.
Take `CCCN1CCC=C(c2cc(-c3ccc(OC)cc3)no2)C1` [Example 14A, 3-(4'-Methoxyphenyl)-5-[3'-(1'-propyl-1', 2', 5', 6'-tetrahydropyridinyl)]isoxazole oxalate]: in assay [1], the “RQNB % Inhibition @ 1 μM” value is 11%. Besides, at sigma binding site, the IC50 is 10000 nM.
In the same order, the values of `CCCN1CCC=C(c2cc(-c3ccc(C)cc3)on2)C1` [Example 5B, 3-[3'-(1'-propyl-1', 2', 5', 6'-tetrahydropyridinyl)]-5-(4'-methylphenyl)isoxazole oxalate] are 6% and 0.62 nM.

The values are drawn from patent US5330994A, “Tetrahydropyridine isoxazoline derivatives” (Warner-Lambert Company, priority 1992, dated 1994).
